Data taken from patent US20240277767A1, “METHODS AND USES” (PROLEUKOCYTE AB, priority 2021, published 2024).

Assays:
NK cells [1] = assay: NK cells co-cultured with PMA-activated autologous monocytes: intracellular ROS and K562 lysis; format: cell-based, human
Description: (§1) For Nrf2 inhibition, NK cells were treated with 50 μM ML-385 (Sigma-Aldrich) in parallel. For H2O2 treatment, lymphocyte cells were washed and resuspended to 1×10^6 cells/mL in medium and exposed to indicated H2O2 (Sigma-Aldrich) concentration for 1 h at 37° C. Cells were washed with medium and then used for further experiments. For monocyte experiments, autologous NK cell-monocytes or TIL-monocytes were used. NK cells/TIL were isolated and pre-treated with 0.5 μg/mL AUF, as described above, and co-cultured with unstimulated at the ratio, 1:2 M:NK, or stimulated monocytes at the ratio, 1:1 M:NK, if not indicated otherwise. Stimulated monocytes were activated with 100 ng/ml PMA for 1 min, washed and added at indicated ratio, the number of NK cell/TIL was kept constant. As control, H2O2 was used at indicated concentration. Cells were co-cultured for 2 h and then effector cells were stained for intracellular ROS (see flow cytometry) or used as effector cells in Cr^51 release assay (E:T ratio 10:1).
Monocytes were stimulated with 100 ng/ml PMA for 1 min and washed with HBSS (Gibco). Cells were resuspended in HBSS 5% FBS and added to a 96-well Optiplate (Perkin Elmer) containing HBSS 5% FBS and Luminol (56 μM; Sigma). Luminescence was measured immediately using a EnSpire plate reader (Perkin Elmer).
(§2) For detection of intracellular ROS levels, for NK cells CellROX™ Deep Red Reagent (Invitrogen) were used. Briefly, NK cells were stained with 2.5 μM CellROX solution in RPMI for 30 min at 37° C. and then stained for flow cytometry with anti-CD56 and anti-CD3 (both Biolegend).
For cytotoxic assay, a standard 4 h [Cr^51]-release assay was used. Briefly, tumour cells were harvested and labeled with 51Cr (PerkinElmer) and used as target cells. Effector cells, NK cells and T cells, were co-cultured in 96-well V-bottom plate with indicated tumour cells at the stated effector target ratio (E:T). The supernatant was collected onto LUMA plates (Perkin-Elmer) and radioactivity/tumour cell lysis was detected by MicroBeta2 (Perkin Elmer). Target cell killing measured by % specific lysis and calculated using the formula: ((experimental release-spontaneous release)/(maximum release-spontaneous release))*100.

cancer cells = conditions: high doses (Stafford et al., 2018; Rigobello et al., 2008); cited from earlier work
NK cells [2] = assay: Degranulation (CD107a) and IFNγ expression of NK cells co-cultured with K562 cells (flow cytometry); format: cell-based, human; conditions: for Degranulation capacity (CD107a expression) of NK cells after co-culture with K562: with and without induction of oxidative stress (H2O2)
Description: Lymphocytes were isolated and pre-treated when indicated, with compound and H2O2, as described above. For degranulation/measuring CD107a expression, NK cells were co-cultured with K562 tumour cells at an effector target ratio 1:1 in the presence of anti-CD107a in U-bottom plates. After 2 h, GolgiStop™ and GolgiPlug™ (BD Bioscience) were added and cells were harvested after an additional 4 h co-culture and stained for CD56 and CD3, as described above. For positive control, 25 ng/ml PMA (Sigma Aldrich) and 500 ng/mL Ionomycin (Sigma Aldrich) were added.
Lymphocytes were isolated and pre-treated when indicated, with compounds and/or H2O2, as described above. For degranulation assay, NK cells were co-cultured with K562 cells (E:T ratio 1:1) in the presence of anti-CD107a FITC antibody. After 2 h, GolgiStop™ and GolgiPlug™ (BD Bioscience) were added and cells were harvested after an additional 4 h co-culture and stained for CD56, CD3 and anti-IFNγ, as described above. As a positive control, 25 ng/ml PMA (Sigma Aldrich) and 500 ng/ml Ionomycin (Sigma Aldrich) were added.

[3] = test system: CD19 directed CAR T cells; assay: CD19-directed CAR T-cell lysis of RAJI and N6/ADR tumour cells after H2O2; format: cell-based, human; conditions: H2O2 at different concentrations, E:T 15:1, vs control CAR T cells
Description: Melanoma patient derived TIL and CD19 directed CAR T cells were generated as previously described (Magalhaes et al., 2018; Lövgren et al., 2020).
as §1, with “Cells were co-cultured for 2 h and then effector cells were stained for intracellular ROS (see flow cytometry) or used as effector cells in Cr^51 release assay (E:T ratio 10:1).” left out
For cytotoxic assay, a standard 4 h [Cr^51]-release assay was used. […] The supernatant was collected onto LUMA plates (Perkin-Elmer) and radioactivity/tumour cell lysis was detected by MicroBeta2 (Perkin Elmer). Target cell killing measured by % specific lysis and calculated using the formula: ((experimental release-spontaneous release)/(maximum release-spontaneous release))*100.

CD8+ T cells = assay: IFNγ release by expanded healthy donor CD8+ T cells by pre-treatment time; format: cell-based, human
NK cells [4] = assay: Intracellular ROS levels in NK cells (CellROX, flow cytometry); format: cell-based, human
Description: as §1, §2

ANRU TIL = assay: Viability of pre-treated ANRU TIL after H2O2 exposure (flow cytometry); format: cell-based, human; conditions: 24 h co-culture with ANRU tumour cells, alive CD3+ T cells
Description: Lymphocytes were pre-treated for 18 h with Auranofin (AUF, with the concentration 1 μg/mL for NK cells and 0.5 μg/mL for TIL, if not indicated differently), DL-Sulforaphane (SUL) or Dimethyl Fumarate (DMF) (all Sigma-Aldrich) at indicated concentrations.
as §1, with “Cells were co-cultured for 2 h and then effector cells were stained for intracellular ROS (see flow cytometry) or used as effector cells in Cr^51 release assay (E:T ratio 10:1).” left out
All antibodies (see Table 1) and FACS reagents were used according to manufactures recommendation, if not stated otherwise. […] Samples were fixed with 2% PFA (Thermo scientific) for 15 min before acquired on a NovoCyte (ACEA Biosciences) and analysed using FlowJo Software (TreeStar).

## CC(=O)OC[C@H]1O[C@@H]([S-])[C@H](OC(C)=O)[C@@H](OC(C)=O)[C@@H]1OC(C)=O.CCP(CC)CC.[Au+] [AUF, Auranofin]
NK cells [1]
  Protection of NK cells from monocyte-derived ROS: protects NK cells from monocyte-derived ROS
NK cells [1]; 0.5 μg/mL AUF, 2 h co-culture, vs controls
  Intracellular ROS in NK cells co-cultured with activated monocytes: significantly lower levels of intracellular ROS
NK cells [1]; also at the highest monocyte to NK cell ratio
  Killing of K562 target cells by NK cells co-cultured with activated monocytes: significantly higher efficiency
Cancer cells
  Toxicity / cell death in cancer cells: toxic and induce cell death
NK cells [2]; during oxidative stress, 6 h co-culture with K562
  Difference in protective effect on different NK cell functions (CD107a degranulation vs IFNγ expression): no difference
NK cells [2]
  Degranulation capacity (CD107a expression) of NK cells after co-culture with K562: protective effect was observed both in the presence or absence of H2O2
NK cells [2]; listed as Auranofin
  Degranulation capacity (CD107a expression) of NK cells after co-culture with K562: increased degranulation capacity
[3]
  Killing of CD19+ target cells by CD19 directed CAR T cells: significantly increased killing
[3]; listed as auranofin
  Killing of CD19+ target cells by CD19 directed CAR T cells: improved tumour killing
CD8+ T cells
  Pre-treatment time after which a protective effect was observed in T cells: 8 to 12 h
NK cells [4]; 72 h after AUF removal
  Intracellular fluorescence of the ROS indicator in NK cells vs controls: no differences
NK cells [4]; H2O2 challenge 0-48 h after AUF removal
  Intracellular fluorescence of the ROS indicator in NK cells: significantly lower intracellular fluorescence of the ROS indicator
NK cells [4]; up to 72 h after compound removal
  Intracellular ROS levels in NK cells and TIL after H2O2 treatment: decreased intracellular ROS levels
NK cells [4]; without addition of H2O2
  Intracellular ROS levels in NK cells: significantly reduced intracellular ROS levels
ANRU TIL
  Viability of ANRU TIL after exposure to H2O2: improved viability
